The source of these data is patent US6372804B1, “Noxious-insect repellent” (Kanebo, Ltd., priority 1991, dated 2002).

SMILES strings stand for the structures.

In series [1] the test system is imagoes of the tiger mosquito, Aedes albopictus. Briefly: noxious-insect repellency test (treated forearm in a cage of tiger mosquitoes, percent repellency from biting marks). The class given is in vivo. As to conditions: for Percent repellency: an hour after application; for noxious-insect repelling effect and durability (result in words): lotion or milky lotion containing the compound, tiger mosquito imagoes. The method, then: In each example, the noxious-insect repellency test was conducted as follows:
Test method of noxious-insect repelling effect and durability thereof In order to assess the repelling effect against imagoes of the tiger mosquito, Aedes albopictus, the following test was conducted at a room temperature of 30° C. and a relative humidity of 70% in an air-conditioned room. 10 ml each of test samples was applied to left and right forearms. Each treated forearm was introduced into a wire gauze cage (20 cm L.×15 cm Dia.) containing 50 female and 50 male tiger mosquitoes 5-7 days old after eclosion, for 15 minutes to afford time for biting. The assessment was repeated 30 minutes, 1 hour, 2 hours, 4 hours and 6 hours after the test sample was applied. The number of marks made by biting within each biting time was counted and a percent repellency was calculated using the following formula:
Percent repellency=(X−Y)/X×100 (%)
X: the number of the marks made by biting when the test sample was not applied,
Y: the number of the marks made by biting when the test sample was applied.

Series [2] can be described thus: solubility in a 90 wt. % ethanol aqueous solution. It is filed as physicochemical. Also noted: key: ◯: Soluble; X: Insoluble. The method, then: (§1) With the purpose of investigating the properties of the compounds to be used for the present invention, solubilities in a 90 wt. % ethanol aqueous solution and stabilities at 0° C., room temperature and 40° C., of hydroxymethyl-menthol, 2-hydroxymethyl-2-butyl-cyclopentanol and 2-(1-hydroxyisopropyl)-5,6-dimethyl-cyclohexanone, were investigated. […] Furthermore, it can be understood that the quantity of the repellent compound is preferred to be at most 20% by weight, in view of touch in use.

Series [3] in a line: stability in a 90 wt. % ethanol aqueous solution at 0° C., room temperature and 40° C. It is filed as physicochemical. Also noted: key: ◯: Stable; X: Precipitated. As for the experimental part:
as §1

Where [4] appears, read: 0° C., content 10% (wt. %) in 90 wt. % ethanol aqueous solution.
The mark [5] stands for this setting: 0° C., content 20% (wt. %) in 90 wt. % ethanol aqueous solution.
Where [6] appears, read: 0° C., content 50% (wt. %) in 90 wt. % ethanol aqueous solution.
The mark [7] stands for this setting: 0° C., content 90% (wt. %) in 90 wt. % ethanol aqueous solution.
Setting [8] is: 0° C., content 95% (wt. %) in 90 wt. % ethanol aqueous solution.
The mark [9] stands for this setting: 40° C., content 10% (wt. %) in 90 wt. % ethanol aqueous solution.
Setting [10] is: 40° C., content 20% (wt. %) in 90 wt. % ethanol aqueous solution.
The mark [11] stands for this setting: 40° C., content 50% (wt. %) in 90 wt. % ethanol aqueous solution.
Where [12] appears, read: 40° C., content 90% (wt. %) in 90 wt. % ethanol aqueous solution.
Setting [13] is: 40° C., content 95% (wt. %) in 90 wt. % ethanol aqueous solution.
[14] abbreviates: room temperature, content 10% (wt. %) in 90 wt. % ethanol aqueous solution.
Where [15] appears, read: room temperature, content 20% (wt. %) in 90 wt. % ethanol aqueous solution.
Where [16] appears, read: room temperature, content 50% (wt. %) in 90 wt. % ethanol aqueous solution.
The mark [17] stands for this setting: room temperature, content 90% (wt. %) in 90 wt. % ethanol aqueous solution.
Setting [18] is: room temperature, content 95% (wt. %) in 90 wt. % ethanol aqueous solution.

For `CCCCC1(CO)CCCC1O` (stereo not drawn) [2-Hydroxymethyl-2-butyl-cyclopentanol, 2-hydroxymethyl-2-butyl-cyclopentanol], the values for the Percent repellency in series [1] (content 0.1% (wt. %) in 40 wt. % ethanol aqueous solution), in series [1] (content 1% (wt. %) in 40 wt. % ethanol aqueous solution) and in series [1] (content 3% (wt. %) in 40 wt. % ethanol aqueous solution) were 24%, 60% and 88%, respectively. Moreover, the Solubility entry in series [2] (setting [4]), in series [2] (setting [5]), in series [2] (setting [6]), in series [2] (setting [7]), in series [2] (setting [8]) and in series [2] (setting [9]) was “◯” in each case. In addition, the Solubility entry in series [2] (setting [10]), in series [2] (setting [11]), in series [2] (setting [12]), in series [2] (setting [13]), in series [2] (setting [14]) and in series [2] (setting [15]) was “◯” throughout. Moreover, the Solubility result in series [2] (setting [16]), in series [2] (setting [17]) and in series [2] (setting [18]) was “◯” in each case. For the same compound, the Stability result in series [3] (setting [4]) is on record as “◯”; in series [3] (setting [5]), “◯”; in series [3] (setting [6]), “◯”; in series [3] (setting [7]), “◯”; in series [3] (setting [8]), “X”; in series [3] (setting [9]), “◯”. The Stability entry in series [3] (setting [10]), in series [3] (setting [11]), in series [3] (setting [12]), in series [3] (setting [13]), in series [3] (setting [14]) and in series [3] (setting [15]) was “◯” throughout. The Stability result in series [3] (setting [16]) is “◯”; in series [3] (setting [17]), “◯”; in series [3] (setting [18]), “X”.
In the case of `CC(C)C1(CO)CCCC1O` (stereo not drawn) [2-hydroxymethyl-2-isopropyl-cyclopentanol], the “noxious-insect repelling effect and durability (result in words)” value in series [1] was “excellent noxious-insect repelling effect and durability”.
On the same count and under the same terms, for `CCCC(O)C1C(=O)C2(C)CCC1C2(C)C` (stereo not drawn) [3-(1-hydroxybutyl)-camphor] the value was “excellent noxious-insect repelling effect and durability”; for `CC(C)(C)C1CCC(=O)C(CO)C1` (stereo not drawn) [2-hydroxymethyl-4-(t-butyl)-cyclohexanone], “excellent noxious-insect repelling effect and durability”; for `CC(O)C1CCCCCC1O` (stereo not drawn) [2-(1-hydroxyethyl)-cycloheptanol], “excellent noxious-insect repelling effect and durability”.
Same read-out and setting: to `CCC1CC(O)C(CO)C1` (stereo not drawn) [2-hydroxymethyl-4-ethyl-cyclopentanol] belongs “excellent noxious-insect repelling effect and durability”; to `C=CCC1C(C)CCC(C(C)(C)O)C1O` (stereo not drawn) [p-menthane-2-(2-propenyl)-3,8-diol], “excellent noxious-insect repelling effect and durability”.
